Laboratory results as given in PMC7224190, “Pharmacological inhibition of PRMT7 links arginine monomethylation to the cellular stress response” (Nature Communications, 2020).

Experiments:
PRMT7 [1] = biological target: T1, PRMT7 (Homo sapiens, UniProt Q9NVM4); experiment: radiometric SPA methyltransferase assay, 3H-SAM and H2B ([…]); format: biochemical
T1 sequence (Q9NVM4 1-692): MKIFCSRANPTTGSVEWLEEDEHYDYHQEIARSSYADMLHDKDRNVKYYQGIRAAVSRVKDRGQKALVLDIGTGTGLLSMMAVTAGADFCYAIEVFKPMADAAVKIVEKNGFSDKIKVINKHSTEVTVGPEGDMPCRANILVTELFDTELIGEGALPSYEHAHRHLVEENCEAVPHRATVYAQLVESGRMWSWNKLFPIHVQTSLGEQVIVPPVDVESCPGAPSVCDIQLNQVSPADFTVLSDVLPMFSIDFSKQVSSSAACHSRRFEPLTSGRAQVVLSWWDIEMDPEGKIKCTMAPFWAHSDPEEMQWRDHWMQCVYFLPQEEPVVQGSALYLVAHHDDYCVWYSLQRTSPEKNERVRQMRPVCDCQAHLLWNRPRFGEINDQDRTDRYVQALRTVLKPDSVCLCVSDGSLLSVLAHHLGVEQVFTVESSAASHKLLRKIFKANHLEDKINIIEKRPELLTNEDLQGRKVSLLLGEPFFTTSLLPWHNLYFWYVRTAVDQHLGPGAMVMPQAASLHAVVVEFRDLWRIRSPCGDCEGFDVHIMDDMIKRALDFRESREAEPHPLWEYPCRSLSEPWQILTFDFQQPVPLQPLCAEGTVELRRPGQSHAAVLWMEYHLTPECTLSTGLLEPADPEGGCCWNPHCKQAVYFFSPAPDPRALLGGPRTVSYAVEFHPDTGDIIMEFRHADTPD

BCDIN3D = biological target: T2, BCDIN3D (Homo sapiens, UniProt Q7Z5W3); experiment: biochemical; parameters: radiometric methyltransferase selectivity assay with tritiated SAM, per cent activity; details: read-out: % of control remaining
T2 sequence (Q7Z5W3 1-292): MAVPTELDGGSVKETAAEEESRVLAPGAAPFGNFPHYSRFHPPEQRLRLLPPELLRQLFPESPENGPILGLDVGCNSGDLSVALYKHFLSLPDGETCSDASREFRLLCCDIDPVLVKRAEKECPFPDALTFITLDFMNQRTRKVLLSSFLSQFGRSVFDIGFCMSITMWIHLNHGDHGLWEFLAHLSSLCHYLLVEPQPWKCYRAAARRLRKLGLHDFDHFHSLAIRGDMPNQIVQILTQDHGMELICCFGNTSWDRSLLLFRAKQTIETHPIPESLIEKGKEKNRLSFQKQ
Procedure, shortened: (§1)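 Radiometric methyltransferase assays with ³H-SAM and substrate near apparent Km, compound tested at 1 and 10 μM. Methyl incorporation into biotinylated substrate read by scintillation proximity after guanidine quench; no-compound = 100%, no-enzyme = 0% activity.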

PRMT5-MEP50 = PRMT5-MEP50 (Homo sapiens, UniProt O14744); experiment: biochemical; parameters: radiometric methyltransferase selectivity assay with tritiated SAM, per cent activity; details: read-out: % of control remaining
Procedure, shortened: as §1

PRC2-EZH2 = PRC2-EZH2 (Homo sapiens, UniProt Q15910); experiment: biochemical; parameters: radiometric methyltransferase selectivity assay with tritiated SAM, per cent activity; details: read-out: % of control remaining
PRMT7 [2] = biological target: T1, PRMT7; experiment: biochemical; parameters: full-length; radiometric methyltransferase selectivity assay with tritiated SAM, per cent activity; details: read-out: % of control remaining
Description: The methyltransferase selectivity was assessed at two compound concentrations of 1 and 10 μM by radiometric assays using tritiated-SAM. For methyltransferases: MLL1, MLL3, EZH1 (PRC2), and EZH2 (PRC2), G9a, GLP, SUV39H1, SUV39H2, SUV420H1, SUV420H2, SETD2, SETD8, SETDB1, SETD7, PRMT1, PRMT3, PRMT4, PRMT5/ MEP50 complex, PRMT6, PRMT7, PRMT8, PRMT9, PRDM9, SMYD2, SMYD3, DNMT1, and BCDIN3D the incorporation of a tritium-labeled methyl group into biotinylated substrate was monitored using scintillation proximity assay (SPA). Briefly, a 10 μL reaction containing ^3H-SAM and substrate at concentrations close to the apparent Km values for each enzyme (balanced conditions) was prepared. The reactions were quenched with 10 μL of 7.5 M guanidine hydrochloride; 180 μL of 20 mM Tris buffer (pH 8.0) were added, and the mixture was transferred to a 96-well FlashPlate and incubated for 1 h. The counts per minute (CPM) was measured on a TopCount plate reader. The CPM in the absence of compound or enzyme was defined as 100% activity and background (0%), respectively, for each dataset[74]–[76]. Selectivity of SGC8158 against 342 kinases was evaluated in a kinase panel TR-FRET assay at 1 and 0.1 μM compound in duplicates as described before. Briefly, tagged kinases were incubated with compound and staurosporine-based fluorescent probe where the binding was detected using Tb conjugated anti-tag antibody energy transfer to the probe. Excitation wavelength was 337 nm and fluorescent emission signal was measured for Tb (486 nm) and fluorescent probe (BODIPY, 515 nm). Specific and non-specific binding was determined in the absence and presence of unlabeled staurosporine.

PRMT7 [3] = biological target: T1, PRMT7; experiment: SPR kinetics (Biacore T200); also radiometric SPA IC50 […]; format: binding; parameters: Bio-PRMT7 (amino acids 1–692)

Sequence of PRMT5-MEP50 (O14744 whole entry): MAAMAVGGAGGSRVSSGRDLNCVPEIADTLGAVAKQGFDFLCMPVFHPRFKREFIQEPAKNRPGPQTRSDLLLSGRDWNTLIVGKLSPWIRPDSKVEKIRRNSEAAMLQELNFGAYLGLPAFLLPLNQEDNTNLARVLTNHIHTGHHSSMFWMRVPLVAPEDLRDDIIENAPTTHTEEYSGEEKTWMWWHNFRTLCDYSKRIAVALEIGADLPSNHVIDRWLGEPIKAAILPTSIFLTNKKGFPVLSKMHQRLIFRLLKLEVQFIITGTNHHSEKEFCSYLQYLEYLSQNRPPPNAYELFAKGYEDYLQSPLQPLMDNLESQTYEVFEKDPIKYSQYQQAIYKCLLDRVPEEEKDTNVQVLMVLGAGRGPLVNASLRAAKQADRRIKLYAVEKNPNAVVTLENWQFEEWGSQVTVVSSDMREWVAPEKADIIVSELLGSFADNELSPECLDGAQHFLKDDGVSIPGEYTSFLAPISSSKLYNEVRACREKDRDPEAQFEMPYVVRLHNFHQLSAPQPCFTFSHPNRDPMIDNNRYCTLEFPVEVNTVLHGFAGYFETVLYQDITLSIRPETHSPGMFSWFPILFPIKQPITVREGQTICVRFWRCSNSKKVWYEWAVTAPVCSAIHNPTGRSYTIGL
Sequence of PRMT5-MEP50 (Q9BQA1 whole entry partner): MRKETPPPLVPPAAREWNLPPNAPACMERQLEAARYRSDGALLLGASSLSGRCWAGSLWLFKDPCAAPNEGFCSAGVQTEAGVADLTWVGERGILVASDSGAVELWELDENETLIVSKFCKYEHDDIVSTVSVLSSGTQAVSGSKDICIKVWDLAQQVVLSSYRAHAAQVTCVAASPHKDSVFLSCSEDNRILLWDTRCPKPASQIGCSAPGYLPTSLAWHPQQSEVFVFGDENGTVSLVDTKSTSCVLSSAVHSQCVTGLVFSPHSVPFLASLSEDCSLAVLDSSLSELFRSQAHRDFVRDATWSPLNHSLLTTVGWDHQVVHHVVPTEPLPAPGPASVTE
Sequence of PRC2-EZH2 (Q15910 whole entry): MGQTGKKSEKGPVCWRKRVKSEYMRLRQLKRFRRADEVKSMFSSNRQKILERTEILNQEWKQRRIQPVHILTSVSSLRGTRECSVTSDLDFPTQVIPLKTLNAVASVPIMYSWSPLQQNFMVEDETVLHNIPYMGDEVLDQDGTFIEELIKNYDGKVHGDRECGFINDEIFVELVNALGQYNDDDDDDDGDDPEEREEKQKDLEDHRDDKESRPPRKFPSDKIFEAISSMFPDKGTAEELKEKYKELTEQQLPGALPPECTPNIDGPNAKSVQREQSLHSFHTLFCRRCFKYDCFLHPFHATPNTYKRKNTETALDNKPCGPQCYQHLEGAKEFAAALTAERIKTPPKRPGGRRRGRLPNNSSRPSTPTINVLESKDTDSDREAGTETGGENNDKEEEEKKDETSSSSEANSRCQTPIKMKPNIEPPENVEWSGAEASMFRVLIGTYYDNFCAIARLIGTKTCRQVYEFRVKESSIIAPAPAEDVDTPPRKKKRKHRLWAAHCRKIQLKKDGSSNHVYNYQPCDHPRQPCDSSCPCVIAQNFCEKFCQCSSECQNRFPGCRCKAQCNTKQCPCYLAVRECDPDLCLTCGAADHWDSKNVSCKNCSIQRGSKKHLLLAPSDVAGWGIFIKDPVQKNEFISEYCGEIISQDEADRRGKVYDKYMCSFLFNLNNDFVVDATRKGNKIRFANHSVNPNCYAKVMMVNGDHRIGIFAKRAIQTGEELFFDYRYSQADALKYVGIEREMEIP
Sequence of PRC2-EZH2 (O75530 whole entry partner): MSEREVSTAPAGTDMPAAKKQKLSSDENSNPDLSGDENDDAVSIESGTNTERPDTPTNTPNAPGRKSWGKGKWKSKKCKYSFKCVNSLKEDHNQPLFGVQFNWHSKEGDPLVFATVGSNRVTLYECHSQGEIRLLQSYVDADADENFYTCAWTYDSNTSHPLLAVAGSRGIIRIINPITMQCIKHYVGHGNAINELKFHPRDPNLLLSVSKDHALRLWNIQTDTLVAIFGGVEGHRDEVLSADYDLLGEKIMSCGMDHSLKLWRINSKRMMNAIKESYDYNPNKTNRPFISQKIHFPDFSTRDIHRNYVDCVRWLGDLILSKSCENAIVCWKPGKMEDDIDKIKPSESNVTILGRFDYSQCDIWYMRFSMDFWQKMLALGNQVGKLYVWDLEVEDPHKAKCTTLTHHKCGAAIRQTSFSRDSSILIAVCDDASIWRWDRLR
Sequence of PRC2-EZH2 (Q15022 whole entry partner): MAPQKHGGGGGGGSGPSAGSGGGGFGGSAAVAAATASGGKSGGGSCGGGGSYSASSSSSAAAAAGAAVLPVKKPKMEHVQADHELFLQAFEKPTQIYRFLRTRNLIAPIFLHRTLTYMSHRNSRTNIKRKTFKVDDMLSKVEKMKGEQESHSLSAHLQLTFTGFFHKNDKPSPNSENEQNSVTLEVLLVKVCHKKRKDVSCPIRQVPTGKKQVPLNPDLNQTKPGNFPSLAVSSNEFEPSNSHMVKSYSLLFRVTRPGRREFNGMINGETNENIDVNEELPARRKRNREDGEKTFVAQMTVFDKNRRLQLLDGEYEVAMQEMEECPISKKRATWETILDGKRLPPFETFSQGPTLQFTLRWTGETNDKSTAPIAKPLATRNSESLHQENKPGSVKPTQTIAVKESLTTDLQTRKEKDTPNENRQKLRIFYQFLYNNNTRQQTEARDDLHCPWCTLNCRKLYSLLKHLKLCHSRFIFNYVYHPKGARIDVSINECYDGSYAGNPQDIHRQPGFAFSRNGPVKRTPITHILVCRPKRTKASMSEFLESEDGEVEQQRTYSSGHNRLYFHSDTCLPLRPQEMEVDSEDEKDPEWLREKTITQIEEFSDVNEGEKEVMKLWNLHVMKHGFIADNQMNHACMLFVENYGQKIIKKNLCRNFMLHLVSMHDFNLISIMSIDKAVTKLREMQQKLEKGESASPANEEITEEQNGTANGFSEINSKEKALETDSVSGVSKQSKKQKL

## Nc1ncnc2c1ncn2[C@@H]1O[C@H](CSCCCNCc2cccc(-c3ccc(Cl)cc3)c2)[C@@H](O)[C@H]1O [SGC8172]
PRMT7 [1]
  IC50: < 2.5 nM

## Nc1ncnc2c1ncn2[C@@H]1O[C@H](CSCCCCNCc2cccc(-c3ccc(Cl)cc3)c2)[C@@H](O)[C@H]1O [SGC8158]
BCDIN3D
  remaining activity at 1 µM: 55%
  remaining activity at 10 µM: 11%
PRMT5-MEP50
  remaining activity at 1 µM: 15%
  remaining activity at 10 µM: 2%
PRC2-EZH2
  remaining activity at 1 µM: 105%
  remaining activity at 10 µM: 94%
PRMT7 [2]
  remaining activity at 1 µM: 2%
  remaining activity at 10 µM: 0%
PRMT7 [3]
  Kd: 6.4 ± 1.2 nM

## CC1(C)O[C@@H]2[C@H](O1)[C@@H](CSCCCCNCc1cccc(-c3ccc(Cl)cc3)c1)O[C@H]2n1cnc2c(N)ncnc21 [SGC8158N]
BCDIN3D
  remaining activity at 1 µM: 96%
  remaining activity at 10 µM: 94%
PRMT5-MEP50
  remaining activity at 1 µM: 101%
  remaining activity at 10 µM: 91%
PRC2-EZH2
  remaining activity at 1 µM: 93%
  remaining activity at 10 µM: 88%
PRMT7 [2]
  remaining activity at 1 µM: 95%
  remaining activity at 10 µM: 75%
